From patent US7812014B2, “Bicyclic 6-alkylidene-penems as β-lactamase inhibitors” (priority 2002, dated 2010) come the findings set out here.

Counter-ions that a name gives are not always drawn. Like-named read-outs stand apart in the source and are kept apart here.

The target of experiment [1] is class A β-lactamase TEM-1 (Escherichia coli, UniProt P62593). The experiment is described as follows: IC50 determination, β-lactamase inhibition (nitrocefin, spectrophotometric). Format: biochemical, E. coli. The conditions noted are these: enzyme 4.3 nM; 10 minutes preincubation at 25° C.; nitrocefin 50 μg/ml; pH 7.0. As for the experimental part:
(§1) IC50 Determination for the Penem Inhibitor
(§2) β-Lactamase inhibitory activity of the penem inhibitors was determined spectrophotometrically as described by Bush et al., [Bush, K., Macalintal, C., Rasmussen, B. A., Lee, V. and Yang, Y. Antimicrobial Agents and Chemotherapy 1993, 37, 851]. Homogeneously purified class A β-lactamases TEM-1 from E. coli and Imi-1 from Enterobacter cloacae, class B enzyme CcrA from Bacteroides fragilis and class C enzyme AmpC from Enterobacter cloaca were employed in the assay. The enzyme concentrations for TEM-1, Imi-1, CcrA and AmpC were 4.3, 7.1, 1.2 and 2.1 nM, respectively. A wide range of inhibitor concentrations were prepared in 50 mM PO4, pH 7.0 to include the possible IC50 values. The substrate used to initiate the enzyme reaction was nitrocefin at 50 μg/ml in the same buffer as the inhibitor. Initially the enzyme and inhibitor (20 μl each) were preincubated for 10 minutes at 25° C. prior to the addition of 160 μl volume of nitrocefin. Initial rates of hydrolysis were monitored for 5 minutes at 495 nm using a Molecular Devices Spectra Max 250 with kinetic protocol of SoftMax Program. Readings from the Spectra Max 250 were exported and transferred to Microsoft Excel. The percent of inhibition of each inhibitor concentration was calculated based on the control enzyme activity. The inhibitor concentration that caused a 50% reduction in the enzymatic activity (IC50) was determined graphically.

For experiment [2], the target named is class A β-lactamase Imi-1 (Enterobacter cloacae, UniProt Q46991). Described as above. The note with it: enzyme 7.1 nM; 10 minutes preincubation at 25° C.; nitrocefin 50 μg/ml; pH 7.0; read-out: IC50 (nM) Class A Imi. Format: biochemical. As for the experimental part: as §1, §2
Sequence of class A β-lactamase Imi-1 (Q46991 28-292): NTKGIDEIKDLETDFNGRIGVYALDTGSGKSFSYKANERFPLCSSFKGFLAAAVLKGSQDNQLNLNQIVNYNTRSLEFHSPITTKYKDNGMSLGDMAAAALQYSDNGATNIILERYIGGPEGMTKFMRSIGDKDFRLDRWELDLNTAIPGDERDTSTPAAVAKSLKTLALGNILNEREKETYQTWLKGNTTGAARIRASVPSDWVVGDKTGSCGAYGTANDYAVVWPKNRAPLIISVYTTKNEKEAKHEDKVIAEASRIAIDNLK
For a further experiment, the target named is class B enzyme CcrA (Bacteroides fragilis, UniProt P25910). The experiment is described as above. The note with it: enzyme 1.2 nM; 10 minutes preincubation at 25° C.; nitrocefin 50 μg/ml; pH 7.0; read-out: IC50 (nM) Class B Ccr. Format: biochemical. The protocol:
as §1, §2

A further experiment deals with class C enzyme AmpC (Enterobacter cloacae, UniProt P05364). The experiment can be described thus: biochemical. On the set-up: species or system Enterobacter cloaca. The protocol: as §1, §2
Sequence of class C enzyme AmpC (P05364 21-381): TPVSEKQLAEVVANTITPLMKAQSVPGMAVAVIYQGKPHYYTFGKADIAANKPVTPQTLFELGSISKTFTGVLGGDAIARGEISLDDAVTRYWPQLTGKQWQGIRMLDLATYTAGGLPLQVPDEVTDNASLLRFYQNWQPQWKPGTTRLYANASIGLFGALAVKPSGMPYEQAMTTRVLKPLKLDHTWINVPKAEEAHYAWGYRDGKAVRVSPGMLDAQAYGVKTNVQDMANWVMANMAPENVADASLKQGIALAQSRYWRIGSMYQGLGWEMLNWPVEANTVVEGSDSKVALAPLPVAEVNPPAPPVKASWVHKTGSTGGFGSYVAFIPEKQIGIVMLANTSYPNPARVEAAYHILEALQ
In experiment [3] the test system is Clinical isolates that have been adapted to cause infection in mice. The experiment is described as follows: In vivo antibacterial protection, 7 day survival of infected mice. On the set-up: species or system mice strain CD-1. The conditions noted are these: Ratio of Piperacillin vs. Inhibitor not given. An excerpt: In Vivo Antibacterial Protection
Female mice strain CD-1, approximately 18-22 grams, were received from Charles River Laboratories and quarantined 7 days prior to use. In addition, mice may be rendered neutropenic using cytoxan.
Clinical isolates that have been adapted to cause infection in mice, are used in the experiment, including infections with strains of E. coli, K. pneumoniae, M. morganii, E. cloacae, S. marcescens, C. freundii, staphylococci, streptococci, P. aeruginosa and N. gonorrhoeae.
Mice are challenged by injecting 0.5 ml intraperitoneally or 0.05 ml intranasally of a predetermined bacterial inoculum suspended in broth, saline or hog gastric mucin (supplemented with dried bovine hemoglobin for N. gonorrhoeae). […] Antibacterial doses (dose concentration prepared by two fold serial dilutions of the antibiotic) are dissolved or suspended in 0.2% aqueous agar or methocel, phosphate buffered saline or an adjuvant are administered orally, subcutaneously or intravenously in the following manner: • a) Orally or subcutaneously: Dose volume of 0.5 ml administered ½ hr after infection. A second dose may be administered 3 hr. after infection for treatment of infections with more virulent organisms. • b) Intravenously: Dose volume of 0.2 ml, administered ½ hr. after infection. For the treatment of infections with more virulent organisms, more doses, up to 48 hr may be administered. (Intravenous dosing will not exceed 3 doses/24 hr period.) • c) Oral pretreatment: Under special circumstances, the pH of the stomach needs to be adjusted in order to increase the gastric stability of the antibiotic. For this purpose, 0.5 ml of phosphate buffered saline (pH7.8, 0.06M) (or specific approved adjuvant) is administered orally ½ hr after infection, followed 5 minutes later by 0.5 ml of antibiotic (also orally) contained in phosphate buffered saline (pH7.8, 0.06M). Animal Species
A detailed explanation as to the number of animals needed for the determination of in vivo efficacy follows: • A) Novel antibiotics are tested at 5 different dose levels with 5 mice per dose level at each of three routes of administration (oral, subcutaneous and intravenous). […] This would require 25 mice/route with 3 routes/antibiotic or 75 mice per novel compound tested. One to two novel antibiotics will be tested per experiment (75-150 mice) • B) The effectiveness of the new compound must be compared to that of a standard, or antibiotic of known effectiveness. Known or previously tested antibiotics are tested at 5 dose levels with 5 mice per dose level by a single route of administration, for a total of 25 mice/antibiotic. Usually 3-6 antibiotics will be tested per experiment. (75-150 mice). • C) Untreated controls—In each of the above tests, untreated animals are infected with 3 different concentrations of bacterial inoculum with 10 mice per concentration (30 mice total in each and every test). These untreated controls are used to determine and maintain the infection level between 10-100 LD50s as required for test to test comparison and validity. Determination of Protective Effects of Antibacterial Agents:
The protective effects of the antibacterial agent(s) are measured by the survival of the infected untreated as compared to the treated animals. […] A census of survivors is taken twice daily and at that time dead as well as moribund animals are removed. […] The test is performed three times on separate days to provide a statistically valid number of animals and to minimize variation in test results on a day to day and test to test basis.

The mark [4] stands for this setting: enzyme 2.1 nM, 10 minutes preincubation at 25° C., nitrocefin 50 μg/ml, pH 7.0, read-out: IC50 (nM) Class C AmpC.
The mark [5] stands for this setting: Mus musculus, 168 h, read-out: ED50.

Sequence of class B enzyme CcrA (P25910 19-249): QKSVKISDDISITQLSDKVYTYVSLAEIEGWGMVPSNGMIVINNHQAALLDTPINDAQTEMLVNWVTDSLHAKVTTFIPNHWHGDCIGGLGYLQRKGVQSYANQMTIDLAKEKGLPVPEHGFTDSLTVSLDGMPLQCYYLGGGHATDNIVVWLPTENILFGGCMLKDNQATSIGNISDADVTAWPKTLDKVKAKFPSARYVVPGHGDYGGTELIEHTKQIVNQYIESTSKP
Sequence of class A β-lactamase TEM-1 (P62593 24-286 limits assumed): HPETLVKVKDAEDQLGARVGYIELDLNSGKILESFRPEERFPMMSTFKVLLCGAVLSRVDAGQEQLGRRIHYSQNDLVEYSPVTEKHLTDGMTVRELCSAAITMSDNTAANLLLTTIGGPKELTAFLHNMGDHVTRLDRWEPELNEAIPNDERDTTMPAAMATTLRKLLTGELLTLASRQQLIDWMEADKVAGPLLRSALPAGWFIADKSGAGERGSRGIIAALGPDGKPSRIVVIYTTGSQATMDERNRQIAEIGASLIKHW

Consider `CC(=O)N1CCc2sc(/C=C3/C(=O)N4C(C(=O)[O-])=CS[C@H]34)cc2C1.[Na+]` (single isomer, unassigned) [Example 34, Sodium salt], for which the IC50 amounted to 4.2 nM in experiment [1], 34 nM in experiment [2], 99 nM on class B enzyme CcrA and 6.5 nM on class C enzyme AmpC (setting [4]).

In the case of `O=C([O-])C1=CS[C@@H]2/C(=C\c3cc4n(n3)CSC4)C(=O)N12.[Na+]` [Example 31, (5R)(6Z)-7-Oxo-6-(4H-5-thia-1,6a-diazapentalen-2-ylmethylene)-4-thia-1-azabicyclo[3.2.0]hept-2-ene-2-carboxylic acid, sodium salt], the half-maximal inhibitory concentration (IC50) in experiment [1] was determined as 1.4 nM; in experiment [2] it was 56 nM; on class B enzyme CcrA it was 110 nM; on class C enzyme AmpC (read-out: IC50 (nM) Class C AmpC, pH 7), 1.5 nM. Moreover, in experiment [3], the median effective dose (ED50) is 20 mg/kg.

Consider `O=C(O)C1=CS[C@@H]2/C(=C\c3cc4c(s3)CCN(Cc3cccnc3)C4)C(=O)N12` [Example 21], for which the half-inhibitory concentration (IC50) in experiment [1] came to 9.8 nM; in experiment [2] it was 40 nM; at class B enzyme CcrA it was 280 nM; on class C enzyme AmpC (setting [4]), 18 nM.

On to `O=C([O-])C1=CS[C@@H]2/C(=C\c3cc4n(n3)CCO4)C(=O)N12.[Na+]` [Example 33, (5R)(6Z)-6-(2,3-Dihydropyrazolo[5,1-b]oxazol-6-ylmethylene)-7-oxo-4-thia-1-azabicyclo[3.2.0]hept-2-ene-2-carboxylic acid, sodium salt], for which the IC50 in experiment [1] is 1.1 nM; in experiment [2], 59 nM; at class B enzyme CcrA it was 41 nM; against class C enzyme AmpC, 0.85 nM. Moreover, the ED50 in experiment [3] (setting [5]) was over 64 mg/kg.

Turning to `O=C([O-])C1=CS[C@@H]2/C(=C\c3cc4n(n3)CSCC4)C(=O)N12.[Na+]` [Example 28, (5R)(6Z)-6-(4,5-Dihydro-6-thia-1,7a-diazainden-2-ylmethylene)-7-oxo-4-thia-1-azabicyclo[3.2.0]hept-2-ene-2-carboxylic acid, sodium salt], the median effective dose (ED50) in experiment [3] (setting [5]) turned out to be 31 mg/kg.

For the compound `O=C(O)C1=CS[C@@H]2/C(=C\c3cc4n(n3)CCC4)C(=O)N12` [Example 8, (5R),(6Z)-6-(5,6-Dihydro-4H-pyrrolo[1,2-b]pyrazol-2-ylmethylene)-7-oxo-4-thia-1-azabicyclo[3.2.0]hept-2-ene-2-carboxylic acid, sodium salt], the half-inhibitory concentration (IC50) in experiment [1] turned out to be 1.2 nM; in experiment [2], 50 nM; at class B enzyme CcrA, 14 nM; on class C enzyme AmpC (setting [4]) it was 1.5 nM.

For `O=C([O-])C1=CS[C@@H]2/C(=C\c3cc4n(n3)CCS4)C(=O)N12.[Na+]` [Example 32, (5R)(6Z)-6-(2,3-Dihydropyrazolo[5,1-b]thiazol-6-ylmethylene)-7-oxo-4-thia-1-azabicyclo[3.2.0]hept-2-ene-2-carboxylic acid, sodium salt], the 50% effective dose (ED50) in experiment [3] (setting [5]) stood at 46 mg/kg.

For the compound `CCOC(=O)N1CCc2sc(C=C3C(=O)N4C(C(=O)O)=CSC34)cc2C1` (stereo not shown) [Example 18, 2-(2-Carboxy-7-oxo-4-thia-1-aza-bicyclo[3.2.0]hept-2-en-6-ylidenemethyl)-6,7-dihydro-4H-thieno[3,2-c]pyridine-5-carboxylic acid ethyl ester], the IC50 was found to be 2.8 nM in experiment [1], 50 nM in experiment [2], 120 nM at class B enzyme CcrA and 9.2 nM on class C enzyme AmpC (setting [4]).

Consider `O=C(O)C1=CS[C@@H]2/C(=C\c3cn4c(n3)CN(Cc3ccccc3)CC4)C(=O)N12` [Example 20, (5R),(6Z)-6-(7-Benzyl-5,6,7,8-tetrahydroimidazo[1,2-a]pyrazin-2-ylmethylene)-7-oxo-4-thia-1-azabicyclo[3.2.0]hept-2-ene-2-carboxylic acid, sodium salt], for which the half-maximal inhibitory concentration (IC50) in experiment [1] was 1.4 nM; in experiment [2] it was 9.6 nM; at class B enzyme CcrA it was 18 nM; at class C enzyme AmpC (setting [4]), 3.1 nM.

Consider `O=C(O)C1=CSC2C(=Cc3cc4c(s3)CCSC4)C(=O)N12` (stereo not shown) [Example 16, 6-(6,7-Dihydro-4H-thieno[3,2-c]thiopyran-2-ylmethylene)-7-oxo-4-thia-1-aza-bicyclo[3.2.0]hept-2-ene-2-carboxylic acid], for which the concentration for half-maximal inhibition (IC50) in experiment [1] amounted to 3.1 nM; in experiment [2] it was 25 nM; on class B enzyme CcrA it was 12 nM; at class C enzyme AmpC (setting [4]), 4.2 nM.

Regarding `O=C(O)C1=CS[C@@H]2/C(=C\c3cnc4n3CCSC4)C(=O)N12` [Example 30, (5R),(6Z)-6-(5,6-Dihydro-8-H-imidazo[2,1-c][1,4]thiazin-3-ylmethylene)-7-oxo-4-thia-1-azabicyclo[3.2.0]hept-2-ene-2-carboxylic acid], the half-inhibitory concentration (IC50) in experiment [1] was found to be 2.9 nM; in experiment [2], 2300 nM; at class B enzyme CcrA, 7.8 nM; at class C enzyme AmpC (setting [4]), 2.5 nM.

On to `O=C(O)C1=CS[C@@H]2/C(=C\c3cc4n(n3)CCOC4=O)C(=O)N12` [Example 14, (5R,6Z)-7-oxo-6-[(4-oxo-6,7-dihydro-4H-pyrazolo[5,1-c][1,4]oxazin-2-yl)methylene]-4-thia-1-azabicyclo[3.2.0]hept-2-ene-2-carboxylic Acid], for which the concentration for half-maximal inhibition (IC50) in experiment [1] stood at 2.5 nM; in experiment [2] it was 68 nM; at class B enzyme CcrA, 26 nM; at class C enzyme AmpC (setting [4]), 3.8 nM.

With `O=C(O)C1=CSC2C(=Cc3cc4c(s3)CCOC4)C(=O)N12` (stereo not shown) [Example 15, 6-(6,7-Dihydro-4H-thieno[3,2-c]pyran-2-ylmethylene)-7-oxo-4-thia-1-aza-bicyclo[3.2.0]hept-2-ene-2-carboxylic acid], the IC50 in experiment [1] came out at 1.2 nM; in experiment [2], 8.6 nM; on class B enzyme CcrA, 14 nM; at class C enzyme AmpC (setting [4]), 3.8 nM.

With `CN1Cc2nc(/C=C3/C(=O)N4C(C(=O)O)=CS[C@H]34)cn2CC1=O` [Example 10, (5R),(6Z)-6-(7-Methyl-6-oxo-5,6,7,8-tetrahydro-imidazo[1,2-a]pyrazin-2-ylmethylene)-7-oxo-4-thia-1-aza-bicyclo[3.2.0]hept-2-ene-2-carboxylic acid sodium salt], the IC50 in experiment [1] was 10 nM; in experiment [2], 65 nM; on class B enzyme CcrA it was 140 nM; on class C enzyme AmpC (setting [4]), 3 nM.

In general, IC50 refers to the concentration that gives 50% inhibition. Usually ED50 stands for the dose that gives a 50% effect, or the effect in half of the subjects.
